Measurements reported in patent US20100184113A1, “CONTROLLING OSTEOGENESIS BY INHIBITION OF OSTEOGENIC SUPPRESSORS” (The Scripps Research Institute Office of Patent Counsel, priority 2006, published 2010).

How the values were obtained:
Type in all cases: cell-based, human
hMSCs [1] = assay: Alkaline phosphatase (ALP) activity staining of hMSCs after siRNA transfection
Description: The human mesenchymal stem cells (hMSCs, PT-2501) were purchased from Cambrex Inc. and cultured as instructed by the supplier. Cells were expanded to passage 5 before being used for siRNA library screen. Briefly, diluted Xtreme-siRNA transfection reagent (cat# 476 115 00, Roche) (0.12 μl Xtreme in 14 μl DMEM) was mixed with pre-spotted siRNA (14 ng/well) in each well of 384-well plates for one hour. Cells (4000/well) in 60 μl media (no antibiotics) were then added using automated dispenser (Multidrop 384, Thermo LabSystems) (siRNA final concentration at around 15 nM). Transfection was allowed to continue for 8 hours before first media renewal. After 7 days of culture, cells were stained for alkaline phosphatase (ALP) activity (cat# 86R-1 KT, Sigma). Post-screen assays were done in 96-well plates and siRNA was transfected at the concentration of 30 nM at the cell density of 8000 cells/well. CRE decoy oligonucleotide and control oligonucleotide (phosphorothioate bond modification on all nucleotides) (Park, Y. G. et al., J Biol Chem 274:1573-1580 (1999)) were transfected into cells similarly as siRNA using Xtreme-siRNA transfection reagent, except that the final DNA concentration was 90 nM. […]

PLZF = assay: RT-PCR of PLZF; conditions: samples collected day 7 or day 12 after siRNA transfection
Description: Total RNA from each sample was prepared from around 5×10(4) cells using RNAeasy mini kit from Qiagen and further treated with Turbo DNA-Free (cat# 1907, Ambion) to prevent DNA contamination. Reverse transcription was carried out using SuperScript First-Strand Synthesis System for RT-PCR (cat# 11904-018, Invitrogen) or Qiagen OneStep RT-PCR kit (cat# 210210) as instructed. PCR primers used were as follows: […]
To test their roles in our siRNA induced osteogenic differentiation, RT-PCR was performed on these genes. […] In addition, MAPK signaling pathways have been shown activated in the OS treated hMSCs, and inhibition of these pathways suppresses OS induced osteogenesis (FIG. 9b) (Jaiswal, R. K. et al., J Biol Chem 275:9645-9652 (2000)).

hMSCs [2] = assay: Alizarin red staining for calcium phosphate deposits (ECM mineralization, bone cell maturation); conditions: OS treatment started three days after siRNA transfection and continued for 9 days (3+9OS), vs siCon
p38 = assay: Western blot of phosphorylated p38; conditions: 72 hours after transfection
Description: Cell lyses buffer contains 20 mM Tris pH8.0, 1 mM EDTA, 150 mM NaCl and 0.5% NP-40, and before usage, protease inhibitor cocktail (Cat# p8340, Sigma, 1:100 dilution) and phosphatase inhibitor cocktail 2 (Cat# p5726, sigma, 1:100 dilution) were added. Proteins (60 μg/well) were separated in 12% Novex Tris-Glycine gel (Cat# EC6008 box, Invitrogen) and transferred to Nitrocellulose membrane (Cat# LC2001, Invitrogen) using the XCell II blot module system (Cat# E19051, Invitrogen). The membrane was blocked in 5% milk/PBST for 1 hour at room temperature, incubated over night at 4 degree with primary antibody, washed 3 times with PBST (0.05% Tween 20 in PBS), followed by one hour incubation with secondary antibody in 5% milk/PBST and 3 times wash with PBST at room temperature. For antibody against pCREB however, PBST was substituted with PBS in all steps except for the last one. Antibody-bound proteins were detected utilizing ECL Western blotting detection reagent (Amersham Biosciences).
Anti-phospho-CREB was purchased from Upstate Biotechnology (cat# 06-519); Anti-phospho-p38 was purchased from Cell signaling technology (cat# 9910).
We therefore examined the activation status of ERK1/2 and p38 in the siDUSP6 treated hMSCs along with other siRNA treated samples by western blot using antibodies against the phosphorylated form of the protein at 72 hours after transfection (FIG. 9c).

hMSCs [3] = assay: Adipogenic differentiation of hMSCs, Oil Red O staining; conditions: Adipo from third day after siRNA transfection, continued 12 days, Oil Red O
Description: Cells were rinsed with PBS twice, fixed in 10% formalin solution for 20 minutes, rinsed with PBS twice and dH2O once, washed with propylene glycol for 5 minutes, and stained with Oil red in propylene glycol (12722A, Newcomer Supply) for 30 minutes. Cells were then washed with 85% propylene glycol for 5 minutes, rinsed with dH2O 3 times and preserved in 50% glycerol.
8-CPT-cAMP, Na (cat# 116812), 5-Iodotubercidin (cat# 407900), Prostaglandin E2 (PGE2, cat# 538904), SB 202190 (cat# 559388) and U0126 (cat# 662005) were purchased from Calbiochem; N6,2′-O-Dibutyryl-cAMP (cat# D0260-5MG), forskolin (cat# F6886), ascorbic acid 2-phosphate (cat# 49752-10G), (3-glycerophosphate (G-6251), dexamethasone (D8893), 3-isobutyl-1-methylxanthine (IBMX, 15879) and Insulin (19278) were purchased from Sigma/Aldrich/Fluka.
Bone cell maturation is accompanied by extracellular matrix (ECM) mineralization (John Bilezikian et al., Principles of bone biology, Vol 1, 2nd edn: Academic Press) (2002)). To examine whether the osteogenic differentiation of hMSCs induced by the hit siRNAs can further proceed to the maturation stage, hit siRNA treated cells were cultured for 20 days. […] These observations are consistent with the conclusion that the targeted genes of the ten effective hit siRNAs not only play inhibitory roles in osteogenic specification of hMSCs, but also in bone cell maturation. […] Furthermore, in osteoporotic patients, the number of adipocytes was increased in the marrow, implying a change of cell fate disposition from osteoblast lineage to adipocyte lineage (Justesen, J. et al., Biogerontology 2:165-171 (2001); Meunier, P. et al., Clin Orthop Relat Res 80:147-154 (1971)). We therefore examined the effect of our hit siRNAs on adipogenic differentiation of hMSCs by combined treatment with an adipogenic inducing cocktail (100 μg/ml BMX, 1 μM DEX and 10 μg/ml insulin).
Since the targeted genes are all positively involved in intracellular cAMP signaling, we tested the effect of two compounds of opposing function on cAMP production on osteogenic differentiation of hMSCs, ADK inhibitor 5-iodotubercidin and ADCY activator forskolin (Cottam, H. B. et al., J Med Chem 36:3424-3430 (1993); de Souza, N. J. et al., Med Res Rev 3:201-219 (1983)). […] ATP has been shown as a ligand for P2RY11 receptor (Communi et al., 1997). […] The present observations are consistent with the conclusion that […] in hMSCs, and vice versa.

Substance: CBFA1 siRNA: CBFA1-specific siRNA, antisense UAGUAGAGAUAUGGAGUGCtg, sense GCACUCCAUAUCUCUACUAtt (chain 1 UAGUAGAGAUAUGGAGUGCTG; chain 2 GCACUCCAUAUCUCUACUATT; chemistry not given here) [reference compound]
- ALP activity induced by hit siRNAs or OS on co-treatment (hMSCs [1]; co-transfected with each hit siRNA, vs co-treatment with siCon): reduced the level of ALP activity

Substance: siMJD: siRNA CAGAUGCAUCGACCAAAAC targeting Machado-Joseph disease (ataxin 3) (listed as RNA, chemistry not given here)
- expression of PLZF (PLZF): detected
- intensity of alizarin red staining (hMSCs [2]): no significant effect

Substance: siDUSP6: siRNA CUGUGGUGUCUUGGUACAU targeting dual specificity phosphatase 6 (listed as RNA, chemistry not given here)
- level of active (phosphorylated) p38 (p38): increased level of active p38
- intensity of alizarin red staining (hMSCs [2]): modest enhancement

Substance: siCOMP: siRNA CGGUCACGGAUGACGACUA targeting cartilage oligomeric matrix protein (listed as RNA, further chemistry not given here)
- osteogenic differentiation (ALP activity) (hMSCs [1]; 9 days after siRNA transfection): induces osteogenic differentiation of hMSCs
- adipogenesis induced by adipogenic inducing media (Adipo) (hMSCs [3]): enhances adipogenesis
